Assay results as given in US11746125B2, “Biomimetic peptides derived from biological source and their uses in retarding aging and improving skin” (TCI CO., LTD., priority 2019, dated 2023).

Test system: human fibroblast cell line (CCD-966SK)
Assay: Assay in increasing expression of genes: human fibroblast cells cultured with peptides, RNA detected by nCounter Analysis System
Assay type: cell-based
Procedure: A human fibroblast cell line (CCD-966SK) was used to assay gene expression affected by the peptides of the present disclosure. 1×10^5 of fibroblast cells were seeded and cultured in a 6-well plate containing 2 ml of X-VIVO™ 10 medium. […] The cells cultured with the medium only for 6 or 24 hours were used as control.
The resulting cultured cells were washed with PBS and lysed by adding a lysis reagent. The resulting cell lysis solutions were extracted by RNA Extraction Kit (GENEzol™ 96 Well TriRNA Pure Kit, Geneaid) to collect the RNAs in the cells. The expression of genes was detected by the nCounter Analysis System (NanoString Technologies, Inc.)

[1] = peptides 12.5 and 25 μg/ml, 6 or 24 hours
[2] = 12.5 μg/ml, 24 hours, vs control

**Q.** What does the source list for “QKRRTCK [Heter-7, synthetic 7-mer peptide QKRRTCK]”?
**A.** MMP1 (2.5 μg/ml, 12 hours, vs control): inhibiting; expression of collagen I gene (12.5 μg/ml, vs control): increases; expression of TIMP1 gene (25 μg/ml, 12 hours, vs control): increases; expression of anti-aging genes (Atg1 and Ub15) (25 μg/ml, 12 hours, vs control): increase; expression of telomerase gene (TERC) (25 μg/ml, 12 hours, vs control): increase; expression of DNA repair genes (ERCC1 and XRCC5) (25 μg/ml, vs control): increase; expression of anti-oxidation gene SOD2 (25 μg/ml, vs control): increase; expression of DNA repair genes (ERCC1 and XRCCS) (peptides 12.5 and 25 μg/ml): increases; expression of anti-aging genes (Atg1 and Ubl5) (peptides 12.5 and 25 μg/ml): increases; expression of anti-oxidation gene SOD2 (peptides 12.5 and 25 μg/ml): increases; expression of TIMP1 [1]: increases; expression of collagen I gene [1]: increases; expression of genes relating to collagen breakdown (MMP-1) [1]: inhibiting; expression of telomerase genes (TERC) [1]: increases

**Q.** Which results are given for “TKSGKF [Latrol-6, synthetic 6-mer peptide TKSGKF]”?
**A.** expression of SMPD1 (moisture-retention related gene) and/or HAS2 (25 μg/ml, 6 hours, vs control): increases; expression of anti-aging genes (NADSYN, Atgl, MRPS5) (25 μg/ml, 24 hours, vs control): increases; expression of collagen I gene (COL1A1) (25 μg/ml, 24 hours, vs control): increases; expression of collagen IV gene (COL4A1) (25 μg/ml, 24 hours, vs control): increases; expression of elastin gene (ELN) (25 μg/ml, 24 hours, vs control): increases; expression of DNA repair genes (UNG and MSH6) (6 hours or 24 hours, vs control): increases; expression of telomerase genes (TERC) (6 hours, vs control): increase; expression of DNA repair genes (UNG, MSH6, XRCCS and/or MSH6) [1]: increase; expression of SMPD1 (moisture-retention related genes) and/or HSAS2 [1]: increases; expression of anti-aging genes (NADSYN, Atg1, MRPS5, CCT2 and/or CCT8) [1]: increase; expression of collagen I gene [1]: increases; expression of collagen IV gene [1]: increases; expression of elastin genes [1]: increases; expression of genes relating to collagen breakdown (MMP-1) [1]: inhibiting; expression of telomerase genes (TERC) [1]: increase; expression of collagen I gene (text summary referring to FIG. 12 (A)): increases

**Q.** Which “expression of anti-aging genes (NADSYN, MRPS5, Ub1-5 and/or FOXO)” value [2] does the source give for “KIFKF [Chiro-5, synthetic 5-mer peptide KIFKF]” here?
**A.** The value was “increase”.

**Q.** What about the “expression of MMP1” value (25 μg/ml, vs control) of the same substance?
**A.** Its value is “inhibiting”.

**Q.** And the “expression of collagen I gene (COL1A2)” value (25 μg/ml, vs control)?
**A.** Its value is “increase”.

**Q.** And the “expression of anti-aging genes (NADSYN, MRPS5, Ub1-5 and/or FOXO)” value [1]?
**A.** Its value is “increase”.

**Q.** What about the “expression of collagen I gene” value [1] of the same substance?
**A.** Its value is “increases”.

**Q.** What about the “expression of genes relating to collagen breakdown (MMP-1)” value (“expression of genes relating” for short) [1] of the same substance?
**A.** Its value is “inhibiting”.

**Q.** Which “expression of anti-aging genes (NADSYN, CCT2 and CCT8)” value (25 μg/ml, 6 hours, vs control) does the source give for “LKSGR [Latrol-5, synthetic 5-mer peptide LKSGR]” here?
**A.** The value was “increases”.

**Q.** What about the “expression of collagen I gene (COL1A2)” value (25 μg/ml, 6 hours, vs control) of the same substance?
**A.** The value was “increases”.

**Q.** What about the “expression of genes relating” value (25 μg/ml, 6 hours, vs control) of the same substance?
**A.** The value was “inhibiting”.

**Q.** And the “expression of DNA repair genes (XRCC5 and/or MSH6)” value (6 hours, vs control)?
**A.** Its value is “increases”.

**Q.** What about the “expression of telomerase genes (TERC)” value (24 hours, vs control) of the same substance?
**A.** The value was “increase”.

**Q.** What about the “expression of DNA repair genes (UNG, MSH6, XRCCS and/or MSH6)” value [1] of the same substance?
**A.** The value was “increase”.

**Q.** And the “expression of anti-aging genes (NADSYN, Atg1, MRPS5, CCT2 and/or CCT8)” value [1]?
**A.** The value was “increase”.

**Q.** And the “expression of telomerase genes (TERC)” value [1]?
**A.** The value was “increase”.

**Q.** How did the “expression of moisture-retention related genes (SMPD1)” value (12.5 μg/ml and 25 μg/ml, 24 hours, vs control) turn out when “QRIKYIKP [Chiro-8, synthetic 8-mer peptide QRIKYIKP]” was run?
**A.** Its value is “increase”.

**Q.** What about the “expression of anti-aging genes (NADSYN, MRPS5, Ub1-5 and/or FOXO)” value [2] of the same substance?
**A.** Its value is “increase”.

**Q.** And the “expression of collagen I gene (COLA1)” value (12.5 μg/ml, vs control)?
**A.** Its value is “increases”.

**Q.** And the “expression of collagen IV gene (COL4A1)” value (12.5 μg/ml, vs control)?
**A.** The value was “increases”.

**Q.** What about the “expression of elastin gene (ELN)” value (12.5 μg/ml, vs control) of the same substance?
**A.** The value was “increases”.

**Q.** What about the “expression of anti-inflammatory factor IL-6” value (24 hours) of the same substance?
**A.** The value was “inhibits”.

**Q.** What about the “expression of MMP1” value (24 hours, vs control) of the same substance?
**A.** The value was “inhibiting”.

**Q.** And the “expression of anti-aging genes (NADSYN, MRPS5, Ub1-5 and/or FOXO)” value [1]?
**A.** The value was “increase”.

**Q.** And the “expression of anti-inflammatory factor IL-6” value [1]?
**A.** Its value is “inhibits”.

**Q.** And the “expression of collagen I gene” value [1]?
**A.** The value was “increases”.

**Q.** What about the “expression of elastin genes” value [1] of the same substance?
**A.** The value was “increases”.

**Q.** And the “expression of genes relating” value [1]?
**A.** The value was “inhibiting”.

**Q.** What about the “expression of moisture-retention related genes (SMPD1)” value [1] of the same substance?
**A.** The value was “increases”.

**Q.** How did the “expression of DNA repair genes (ERCC1)” value [2] turn out when “PRPIK [Hapa-5, synthetic 5-mer peptide PRPIK]” was run?
**A.** Its value is “increase”.

**Q.** What about the “expression of telomerase genes (TERC)” value [2] of the same substance?
**A.** Its value is “increase”.

**Q.** And the “expression of anti-aging genes (Atg1, Ub1-5 and FOXO)” value (25 μg/ml, 24 hours, vs control)?
**A.** Its value is “increase”.

**Q.** And the “expression of genes relating” value (25 μg/ml, 24 hours, vs control)?
**A.** The value was “inhibits”.

**Q.** What about the “expression of TIMP1” value (6 hours, vs control) of the same substance?
**A.** Its value is “increases”.

**Q.** And the “expression of collagen IV genes (COL4A1)” value (6 hours, vs control)?
**A.** The value was “increases”.

**Q.** What about the “expression of elastin genes (ELN)” value (6 hours, vs control) of the same substance?
**A.** The value was “increases”.

**Q.** And the “expression of DNA repair genes (ERCC1)” value [1]?
**A.** The value was “increase”.

**Q.** And the “expression of TIMP1” value [1]?
**A.** The value was “increase”.

**Q.** And the “expression of anti-aging genes (Atg1, Ubl-5 and FOXO)” value [1]?
**A.** The value was “increase”.

**Q.** What about the “expression of collagen IV gene” value [1] of the same substance?
**A.** The value was “increase”.

**Q.** And the “expression of elastin genes” value [1]?
**A.** The value was “increase”.

**Q.** What about the “expression of genes relating” value [1] of the same substance?
**A.** Its value is “inhibits”.

**Q.** And the “expression of moisture-retention related genes (ELG-F and GBA)” value [1]?
**A.** The value was “increase”.

**Q.** What about the “expression of telomerase genes (TERC)” value [1] of the same substance?
**A.** The value was “increase”.

**Q.** And the “expressions of moisture-retention related genes (ELG-F and GBA)” value (vs control, concentration not given)?
**A.** The value was “increase”.

**Q.** How did the “expression of anti-aging genes (Atg1, Ub1-5 and FOXO)” value (12.5 μg/ml, 6 hours, vs control) turn out when “VKNAKY [Hapa-6, synthetic 6-mer peptide VKNAKY]” was run?
**A.** The value was “increase”.

**Q.** And the “expression of genes relating” value [2]?
**A.** The value was “inhibits”.

**Q.** And the “expressions of moisture-retention related genes (ELG-F and GBA)” value (25 μg/ml, vs control)?
**A.** The value was “increase”.

**Q.** And the “expression of DNA repair genes (ERCC1)” value (12.5 and 25 μg/ml, 6 hours, vs control)?
**A.** The value was “increase”.

**Q.** What about the “expression of telomerase genes (TERC)” value (12.5 and 25 μg/ml, 24 hours, vs control) of the same substance?
**A.** The value was “increase”.

**Q.** What about the “expression of TIMP1” value (6 hours, vs control) of the same substance?
**A.** Its value is “increase”.

**Q.** What about the “expression of elastin genes (ELN)” value (6 hours, vs control) of the same substance?
**A.** Its value is “increase”.

**Q.** What about the “expression of collagen I genes (COL1A2)” value (24 hours, vs control) of the same substance?
**A.** The value was “increase”.

**Q.** What about the “expression of DNA repair genes (ERCC1)” value [1] of the same substance?
**A.** The value was “increase”.

**Q.** And the “expression of TIMP1” value [1]?
**A.** Its value is “increase”.

**Q.** What about the “expression of anti-aging genes (Atg1, Ubl-5 and FOXO)” value [1] of the same substance?
**A.** Its value is “increase”.

**Q.** What about the “expression of collagen I gene” value [1] of the same substance?
**A.** Its value is “increase”.

**Q.** And the “expression of elastin genes” value [1]?
**A.** The value was “increase”.

**Q.** What about the “expression of genes relating” value [1] of the same substance?
**A.** The value was “inhibits”.

**Q.** What about the “expression of moisture-retention related genes (ELG-F and GBA)” value [1] of the same substance?
**A.** Its value is “increase”.

**Q.** And the “expression of telomerase genes (TERC)” value [1]?
**A.** Its value is “increase”.
